Data on 7 compounds can be found in patent US9556150B2, “Inhibitors of bruton's tyrosine kinase” (Hoffmann-La Roche Inc., priority 2013, dated 2017).

Where a name gives a salt, the structure may show the parent alone.

The IC50 is the concentration needed to halve the response being measured. Higher therefore signals a need for much substance.

In the assay the target is Bruton's Tyrosine Kinase (BTK), inactivated state (Homo sapiens (Human), UniProt Q06187). Briefly: Bruton's Tyrosine Kinase (BTK) Inhibition TR-FRET (Time Resolved FRET) competition assay. As to conditions: TR-FRET competition with Kinase Tracer 178, BTK-Eu complex, 18-24 h at 14° C. It is filed as binding. As to the method:
Bruton's Tyrosine Kinase (BTK) Inhibition TR-FRET (Time Resolved FRET) Assay
This BTK competition assay measures compound potency (IC50) for the inactivated state of Bruton's Tyrosine Kinase using FRET (Förster/Fluorescence Resonance Energy Transfer) technology. The BTK-Eu complex was incubated on ice one hour prior to use at a starting concentration of 50 nM BTK-Bioease™: 10 nM Eu-streptavidin (Perkin-Elmer Catalog#AD0062). The assay buffer consisted of 20 mM HEPES (pH 7.15), 0.1 mM DTT, 10 mM MgCl2, 0.5 mg/ml BSA with 3% Kinase Stabilizer (Fremont Biosolutions, Catalog #STB-K02). After 1 h, the reaction mixture from above was diluted 10 fold in assay buffer to make 5 nM BTK: 1 nM Eu-Streptavidin complex (donor fluorophore). 18 μl of a mixture of 0.11 nM BTK-Eu and 0.11 nM Kinase Tracer 178 (Invitrogen, Catalog #PV5593,) with BTK-Eu alone as no negative control, was then dispensed into 384-well flat bottom plates (Greiner, 784076). Compounds to be tested in assay were prepared as 10× concentrations and serial dilution in half-log increments was performed in DMSO so as to generate 10 point curves. To initiate the FRET reaction, compounds prepared as 10× stock in DMSO was added to the plates and the plates were incubated 18-24 h at 14° C.
After the incubation the plates were read on a BMG Pherastar Fluorescent plate reader (or equivalent) and used to measure the emission energy from the europium donor fluorophore (620 nm emission) and the FRET (665 nm emission). The negative control well values were averaged to obtain the mean minimum. The positive “no inhibitor” control wells were averaged to obtain the mean maximum. Percent of maximal FRET was calculated using following equation: % max FRET=100×[(FSR cmpd−FSR mean min)/(FSR mean max−FSR mean min)]
where FSR=FRET Signal ratio. % Max FRET curves were plotted in Activity Base (Excel) and the IC50(%), hill slope, z′ and % CV were determined. The mean IC50 and standard deviation will be derived from duplicate curves (singlet inhibition curves from two independent dilutions) using Microsoft Excel.
Representative compound data for this assay are listed below in Table II.
Background: Time-resolved FRET reads energy transfer from a long-lived donor to a nearby acceptor.

Bruton's Tyrosine Kinase (BTK), inactivated state, sequence (Q06187 whole entry): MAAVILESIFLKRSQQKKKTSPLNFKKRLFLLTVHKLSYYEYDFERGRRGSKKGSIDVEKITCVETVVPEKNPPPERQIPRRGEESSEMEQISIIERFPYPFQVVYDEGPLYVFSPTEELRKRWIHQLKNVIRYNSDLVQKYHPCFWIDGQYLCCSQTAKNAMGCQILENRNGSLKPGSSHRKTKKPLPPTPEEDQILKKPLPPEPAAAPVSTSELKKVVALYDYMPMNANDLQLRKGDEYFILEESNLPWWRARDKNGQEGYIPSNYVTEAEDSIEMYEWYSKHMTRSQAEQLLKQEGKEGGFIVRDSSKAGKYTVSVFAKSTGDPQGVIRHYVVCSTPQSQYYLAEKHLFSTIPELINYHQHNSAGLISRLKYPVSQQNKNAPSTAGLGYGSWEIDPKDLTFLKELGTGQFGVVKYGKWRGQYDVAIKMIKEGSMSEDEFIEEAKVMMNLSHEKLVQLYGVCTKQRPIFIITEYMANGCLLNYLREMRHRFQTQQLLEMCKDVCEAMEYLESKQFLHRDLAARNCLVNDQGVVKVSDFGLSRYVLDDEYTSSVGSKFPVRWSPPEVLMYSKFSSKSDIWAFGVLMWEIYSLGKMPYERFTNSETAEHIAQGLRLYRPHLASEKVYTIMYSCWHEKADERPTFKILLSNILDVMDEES

In the case of `CN(C)C(=O)c1ccccc1Oc1ccc(-n2ncc(C(=O)c3cc4cc(C(=O)N5CCC(N(C)C(=O)OC(C)(C)C)C5)ccc4[nH]3)c2N)c(Cl)c1` (stereo not shown) [Example I-52, [1-(2-{5-Amino-1-[2-chloro-4-(2-dimethylcarbamoyl-phenoxy)-phenyl]-1Hpyrazole-4-carbonyl}-1H-indole-5-carbonyl)-pyrrolidin-3-yl]-methyl-carbamic acid tert-butyl ester], the IC50 was determined as 17 nM.
Compound `CNC1CCN(C(=O)c2ccc3[nH]c(C(=O)c4cnn(-c5ccc(Oc6ccccc6C(=O)N(C)C)cc5Cl)c4N)cc3c2)C1` (stereo not shown) [Example I-53, acetic acid salt] displayed an IC50 of 1.7 nM.
As to `CN(C)C(=O)c1ccccc1Oc1ccc(-n2ncc(C(=O)c3cc4cc(C(=O)NCCN(C)C(=O)OC(C)(C)C)ccc4[nH]3)c2N)c(Cl)c1` [Example I-55, {2-[(2-{5-Amino-1-[2-chloro-4-(2-dimethylcarbamoyl-phenoxy)-phenyl]-1H-pyrazole-4-carbonyl}-1H-indole-5-carbonyl)-amino]-ethyl}-methyl-carbamic acid tert-butyl ester], the IC50 came to 5.1 nM. Against the preceding compound, the IC50 is about 3-fold higher.
With `CNCCNC(=O)c1ccc2[nH]c(C(=O)c3cnn(-c4ccc(Oc5ccccc5C(=O)N(C)C)cc4Cl)c3N)cc2c1` [Example I-56, 2-{5-Amino-1-[2-chloro-4-(2-dimethylcarbamoyl-phenoxy)-phenyl]-1H-pyrazole-4-carbonyl}-1H-indole-5-carboxylic acid (2-methylamino-ethyl)-amideacetic acid salt] the figure was 3.1 nM; with `CN(C)C(=O)c1ccccc1Oc1ccc(-n2ncc(C(=O)c3cc4cc(C(=O)N5CCOCC5)ccc4[nH]3)c2N)c(Cl)c1` [Example I-57, 2-(4-{5-Amino-4-[5-(morpholine-4-carbonyl)-1H-indole-2-carbonyl]-pyrazol-1-yl}-3-chloro-phenoxy)-N,N-dimethyl-benzamide], 3.3 nM.
`CNC1CCN(C(=O)c2ccc3[nH]c(C(=O)c4cnn(-c5ccc(Oc6ccccc6C(=O)N(C)C)cc5Cl)c4N)cc3c2)CC1` [Example I-58, 2-(4-{5-Amino-4-[5-(4-methylamino-piperidine-1-carbonyl)-1H-indole-2-carbonyl]-pyrazol-1-yl}-3-chloro-phenoxy)-N,N-dimethyl-benzamide] yielded an IC50 of 2.1 nM.
As for `CN(C)C(=O)c1ccccc1Oc1ccc(-n2ncc(C(=O)c3cc4cc(C(=O)O)ccc4[nH]3)c2N)c(Cl)c1` [Example I-59, 2-{5-Amino-1-[2-chloro-4-(2-dimethylcarbamoyl-phenoxy)-phenyl]-1H-pyrazole-4-carbonyl}-1H-indole-5-carboxylic acid], the IC50 stood at 12 nM. This IC50 is about 5.7-fold higher than that of the compound before.
